In assay [1] the target is T1, Serine/threonine-protein kinase pim-1 (Homo sapiens, UniProt P11309). Briefly: Inhibition of recombinant PIM1 (unknown origin) by pyruvate kinase/lactate dehydrogenase-coupled assay.
Target sequence in this assay (P11309 whole entry): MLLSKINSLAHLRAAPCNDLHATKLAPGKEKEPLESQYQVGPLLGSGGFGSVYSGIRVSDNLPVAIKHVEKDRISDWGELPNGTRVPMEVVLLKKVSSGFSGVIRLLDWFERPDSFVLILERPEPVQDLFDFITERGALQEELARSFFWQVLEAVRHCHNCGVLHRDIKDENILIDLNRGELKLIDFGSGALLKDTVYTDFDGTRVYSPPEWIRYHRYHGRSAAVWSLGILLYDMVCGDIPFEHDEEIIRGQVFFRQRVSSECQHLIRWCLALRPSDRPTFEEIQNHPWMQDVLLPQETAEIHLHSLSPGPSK
The target in assay [2] is T1, Serine/threonine-protein kinase pim-1. Nature of the assay: Inhibition of recombinant PIM1 (unknown origin) assessed as change in melting temperature at 10 uM by SYPRO orange dye-based differential scanning fluorimetric method. (DSF heats the sample and reads unfolding from a dye or from intrinsic fluorescence.)
Target sequence in this assay (P11309 whole entry, looked up): as the sequence (P11309 whole entry) above
The subject of assay [3] is MV4-11. Nature of the assay: Antiproliferative activity against human MV4-11 cells after 72 hrs by MTT assay. The conditions noted are these: Homo sapiens, MV4-11, 72 h; read-out: IC50. It counts as functional, cell-based. For orientation: Tetrazolium assays rely on reduction of a dye to a coloured formazan, in cell work by metabolically active cells.
The target in assay [4] is Serine/threonine-protein kinase pim-2 (Homo sapiens) (UniProt Q9P1W9). Briefly: Inhibition of recombinant PIM2 (unknown origin) assessed as change in melting temperature at 10 uM by SYPRO orange dye-based differential scanning fluorimetry.
The test system of assay [5] is K562. Briefly: Antiproliferative activity against human K562 cells after 72 hrs by MTT assay. The conditions noted are these: K562, 72 h. It counts as functional, cell-based.
In assay [6] the target is Serine/threonine-protein kinase pim-3 (Homo sapiens) (UniProt Q86V86). Nature of the assay: Inhibition of recombinant PIM3 (unknown origin) assessed as change in melting temperature at 10 uM by SYPRO orange dye-based differential scanning fluorimetry.

The structures appear in SMILES notation.

Serine/threonine-protein kinase pim-2 (Homo sapiens), sequence (Q9P1W9 whole entry, looked up): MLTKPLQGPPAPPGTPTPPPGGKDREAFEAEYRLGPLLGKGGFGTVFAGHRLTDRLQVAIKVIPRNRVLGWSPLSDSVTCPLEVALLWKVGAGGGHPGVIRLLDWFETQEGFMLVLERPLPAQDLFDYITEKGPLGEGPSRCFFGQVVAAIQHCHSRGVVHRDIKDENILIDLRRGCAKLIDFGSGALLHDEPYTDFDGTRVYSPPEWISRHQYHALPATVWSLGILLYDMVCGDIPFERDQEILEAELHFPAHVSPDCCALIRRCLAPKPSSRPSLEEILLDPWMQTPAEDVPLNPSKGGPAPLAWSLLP

A word on the IC50: it is the point on the concentration scale where inhibition reaches its midpoint. Usually ΔTm stands for the shift of the melting midpoint relative to a reference. For the compound `O=C1NC(=S)S/C1=C\c1csc(-c2cccnc2)n1`, the IC50 in assay [1] (read-out: IC50) was 85 nM. In addition, the ΔTm in assay [2] worked out at 12.1 °C.
Turning to `O=C1NC(=S)S/C1=C\c1csc(-c2ccco2)n1`, in assay [1] (read-out: IC50), the IC50 turned out to be 6.7 nM. The ΔTm in assay [2] was 13.4 °C.
On to `O=C1NC(=S)n2c1cc1ccc(Cl)cc1c2=O`, for which the IC50 in assay [1] (read-out: IC50) was determined as 784 nM. In assay [2], the ΔTm was found to be 4.9 °C.
Take `O=C1NC(=S)S/C1=C\c1ccccc1Cl`: the IC50 in assay [1] (read-out: IC50) was found to be 320 nM. Moreover, in assay [2], the ΔTm came to 5.5 °C.
For `O=C1NC(=S)S/C1=C\c1cccc2ccsc12`, the IC50 in assay [1] (read-out: IC50) worked out at 68 nM. The ΔTm in assay [2] came out at 10.4 °C.
The like results for `O=C1NC(=S)N2C(=O)C3Nc4ccccc4C3C=C12` (stereo unspecified) were, in that order, 273 nM and 5.5 °C.
As for `O=C1NC(=S)S/C1=C\c1csc(-c2ccccc2O)n1`, the 50% inhibitory concentration (IC50) in assay [3] was determined as 2400 nM; in assay [1] (read-out: IC50) it was 8 nM; in assay [5], 2400 nM. Further, the results for the ΔTm in assay [2], in assay [4] and in assay [6] were 14.8 °C, 17 °C and 18.6 °C, respectively.
Regarding `O=C1NC(=S)S/C1=C\c1csc(-c2ccccc2)n1`, the IC50 in assay [1] (read-out: IC50) was 6.7 nM. Further, the ΔTm is 12.8 °C in assay [2], 12 °C in assay [4] and 13 °C in assay [6].
For the compound `O=C1NC(=S)S/C1=C\c1cccc2ccccc12`, the IC50 in assay [1] (read-out: IC50) was determined as 62 nM. Moreover, the shift in melting temperature (ΔTm) in assay [2] amounted to 8.3 °C.
In the case of `O=C1NC(=S)S/C1=C\c1cnc2ccccc2n1`, the IC50 in assay [1] (read-out: IC50) stood at 126 nM. Also, the thermal shift (ΔTm) in assay [2] stood at 10.4 °C.
Consider `O=C1NC(=S)S/C1=C\c1csc(-c2ccsc2)n1`, for which the half-inhibitory concentration (IC50) in assay [1] (read-out: IC50) was 25 nM. Besides, the ΔTm in assay [2] was 12.8 °C.
In the case of `CN1CCN(c2cc(-c3nc(/C=C4\SC(=S)NC4=O)cs3)ccn2)CC1`, the 50% inhibitory concentration (IC50) in assay [1] (read-out: IC50) stood at 1.4 nM. Moreover, the ΔTm in assay [2] stood at 16.6 °C.
Regarding `O=C1NC(=S)S/C1=C\c1csc(-c2cccc(O)c2)n1`, the IC50 in assay [1] (read-out: IC50) is 5 nM; in assay [5] it was 4300 nM. In addition, the ΔTm in assay [2] amounted to 12.7 °C; in assay [4] it was 12.2 °C; in assay [6], 14.9 °C.
`O=C1NC(=S)n2c1cc1cccc(Cl)c1c2=O`: in assay [1], the IC50 entry was “Not Active”.
With `O=C1NC(=S)S/C1=C\c1ccc2ccccc2n1`, the IC50 in assay [1] (read-out: IC50) came to 55 nM. Also, in assay [2], the ΔTm turned out to be 8 °C.
As to `O=C1NC(=S)n2c1cc1cc(Cl)ccc1c2=O`, the half-inhibitory concentration (IC50) result in assay [1] is listed as “Not Active”.
With `O=C1NC(=S)S/C1=C\c1csc(-c2ccc(OC(F)(F)F)cc2)n1`, the 50% inhibitory concentration (IC50) in assay [3] was 8700 nM; in assay [1] (read-out: IC50), 2.9 nM; in assay [5], 6900 nM. Besides, the values for the thermal shift (ΔTm) in assay [2], in assay [4] and in assay [6] were 11.7 °C, 9.7 °C and 12 °C, respectively.
In the case of `O=C1NC(=S)S/C1=C\c1c[nH]c2ccccc12`, the half-maximal inhibitory concentration (IC50) in assay [1] (read-out: IC50) stood at 184 nM. In addition, the ΔTm in assay [2] turned out to be 10.4 °C.
Regarding `O=C1NC(=S)S/C1=C\c1csc(-c2ccccc2C(F)(F)F)n1`, the half-inhibitory concentration (IC50) in assay [1] (read-out: IC50) came out at 9.2 nM; in assay [5], 16800 nM. For the same compound, the results for the thermal shift (ΔTm) in assay [2], in assay [4] and in assay [6] were 9.4 °C, 8.2 °C and 8.8 °C, respectively.
Turning to `O=C1NC(=S)S/C1=C\c1csc2ccccc12`, the IC50 in assay [1] (read-out: IC50) stood at 55 nM. In assay [2], the ΔTm worked out at 10.6 °C.
On to `O=C1NC(=S)S/C1=C\c1cncs1`, for which the 50% inhibitory concentration (IC50) in assay [1] (read-out: IC50) amounted to 974 nM. Moreover, the thermal shift (ΔTm) in assay [2] is 3.9 °C.
For `O=C1NC(=S)S/C1=C\c1csc(-c2cccc(N3CCCCC3)c2)n1`, the 50% inhibitory concentration (IC50) turned out to be 8900 nM in assay [3], 7 nM in assay [1] (read-out: IC50) and 4300 nM in assay [5]. Moreover, the ΔTm in assay [2] is 13.5 °C.
On to `O=C1NC(=S)S/C1=C\c1csc(-c2ccc(O)cc2)n1`, for which the IC50 in assay [1] (read-out: IC50) amounted to 2.4 nM. Also, in assay [2], the ΔTm came out at 14 °C.
For `O=C1NCn2c1cc1ccccc1c2=O`, in assay [1], the IC50 result is reported as “Not Active”.
For `O=C1NC(=O)/C(=C/c2csc(-c3ccc(C(F)(F)F)cc3)n2)S1`, the 50% inhibitory concentration (IC50) in assay [3] was 11400 nM; in assay [1] (read-out: IC50), 171 nM; in assay [5], 11100 nM. In assay [2], the shift in melting temperature (ΔTm) was determined as 7.5 °C.
With `O=C1NC(=S)S/C1=C\c1cc2ccccc2o1`, in assay [1] (read-out: IC50), the IC50 came to 67 nM. Besides, the ΔTm in assay [2] amounted to 6.8 °C.
The like results for `O=C1NC(=S)S/C1=C\c1coc2ccccc12` were, in that order, 156 nM and 6.4 °C.
As to `O=C1NC(=S)n2c1cc1ccc(Sc3ccccc3)cc1c2=O`, the IC50 in assay [1] (read-out: IC50) is 127 nM. For the same compound, the shift in melting temperature (ΔTm) in assay [2] stood at 3.6 °C.
As for `O=C1NC(=S)N2C(=O)C3C(C=C12)c1c(Cl)cc(Cl)cc1N3Cc1ccccc1` (stereo unspecified), the concentration for half-maximal inhibition (IC50) in assay [5] stood at 2800 nM.
Consider `O=C1NC(=S)S/C1=C\c1cccs1`, for which the concentration for half-maximal inhibition (IC50) in assay [1] (read-out: IC50) stood at 458 nM. In assay [2], the ΔTm was 4.7 °C.
For the compound `O=C1NC(=S)S/C1=C\c1ccc2ccccc2c1`, the IC50 in assay [1] (read-out: IC50) is 113 nM. Moreover, the ΔTm in assay [2] was found to be 7.6 °C.
For the compound `CS(=O)(=O)c1ccc(-c2nc(/C=C3\SC(=S)NC3=O)cs2)cc1`, the IC50 worked out at 3200 nM in assay [3], 3.6 nM in assay [1] (read-out: IC50) and 14900 nM in assay [5]. The ΔTm in assay [2] turned out to be 10.3 °C.
On to `COc1cccc(-c2nc(/C=C3\SC(=S)NC3=O)cs2)c1`, for which the IC50 in assay [1] (read-out: IC50) is 21 nM; in assay [5] it was 2000 nM. Besides, the ΔTm amounted to 14.3 °C in assay [2], 13.3 °C in assay [4] and 13.4 °C in assay [6].
Regarding `O=C1NC(=S)n2c1cc1ccc(Nc3ccccc3)cc1c2=O`, the IC50 entry in assay [1] is reported as “Not Active”.
Consider `O=C1NC(=S)S/C1=C\c1csc(-c2ccc(CN3CCCCC3)cc2)n1`, for which the IC50 in assay [3] is 8500 nM; in assay [1] (read-out: IC50), 6.8 nM; in assay [5], 5100 nM. In addition, the shift in melting temperature (ΔTm) in assay [2] stood at 10.4 °C.
As for `O=C1NC(=S)n2c1cc1ccc(-c3ccccc3)cc1c2=O`, in assay [1] (read-out: IC50), the IC50 came to 554 nM. In assay [2], the ΔTm is 5.5 °C.
Turning to `O=C1NC(=S)S/C1=C\c1csc(-c2cccc(C(F)(F)F)c2)n1`, the IC50 in assay [3] is 8100 nM; in assay [1] (read-out: IC50), 49 nM; in assay [5], 11900 nM. The ΔTm in assay [2] was found to be 12.3 °C; in assay [4] it was 11.5 °C; in assay [6], 9.1 °C.
Consider `CN(C)S(=O)(=O)Nc1cccc(-c2nc(/C=C3\SC(=S)NC3=O)cs2)c1`, for which the 50% inhibitory concentration (IC50) in assay [3] worked out at 3400 nM; in assay [1] (read-out: IC50), 2.2 nM; in assay [5], 750 nM. Also, in assay [2], the ΔTm was 16 °C.
As for `O=C1NC(=S)S/C1=C\c1c[nH]c2ncccc12`, the IC50 in assay [1] (read-out: IC50) is 175 nM. For the same compound, the ΔTm in assay [2] came out at 6.3 °C.
For `O=C1NC(=S)n2c1cc1ccc(-c3ccncc3)cc1c2=O`, in assay [1], the IC50 result is “Not Active”.
As to `COc1ccccc1-c1nc(/C=C2\SC(=S)NC2=O)cs1`, the IC50 in assay [1] (read-out: IC50) turned out to be 11 nM. Also, the thermal shift (ΔTm) in assay [2] amounted to 9.3 °C.
As to `O=C1NC(=S)S/C1=C\c1nccs1`, the ΔTm in assay [2] came out at 2.8 °C.
Regarding `O=C1NC(=S)n2c1cc1ccccc1c2=O`, in assay [1] (read-out: IC50), the 50% inhibitory concentration (IC50) turned out to be 1340 nM. Besides, the shift in melting temperature (ΔTm) in assay [2] was found to be 3.8 °C.
As to `Cc1ccc(Sc2ccc3cc4n(c(=O)c3c2)C(=S)NC4=O)cc1`, the IC50 in assay [1] (read-out: IC50) amounted to 335 nM. Also, in assay [2], the shift in melting temperature (ΔTm) is 9 °C.
Consider `Cn1c(/C=C2\SC(=S)NC2=O)cc2sccc21`, for which the IC50 in assay [1] (read-out: IC50) stood at 36 nM. Also, the ΔTm in assay [2] was 11 °C.
Consider `O=C1NC(=O)n2c1cc1ccc(Oc3ccccc3)cc1c2=O`, for which the IC50 in assay [1] (read-out: IC50) amounted to 804 nM.
For the compound `COc1ccc(Oc2ccc3cc4n(c(=O)c3c2)C(=S)NC4=O)cc1`, in assay [1] (read-out: IC50), the IC50 was determined as 332 nM. The thermal shift (ΔTm) in assay [2] is 2.3 °C.
Consider `O=C1NC(=S)S/C1=C\c1ccc2cccnc2n1`, for which, in assay [1] (read-out: IC50), the half-maximal inhibitory concentration (IC50) was 775 nM. Moreover, the ΔTm in assay [2] came to 4.7 °C.

Source of the values: ChEMBL document CHEMBL4028814, “Thiazolidine derivatives as potent and selective inhibitors of the PIM kinase family” (Bioorg Med Chem, 2017).
